Source: paper PMC3082517 (PLoS Biology, 2011)
Where a name gives a salt, the structure may show the parent alone. Read-outs that look alike come from different tables or passages of the source.

How the values were obtained:
[1] = biological target: T1, p75^NTR (Rattus norvegicus, UniProt P07174); assay: [3H]-DHEA saturation binding to membranes of HEK293 cells transfected with p75NTR cDNA; settings: KD of [3H]-DHEA binding (Scatchard analysis), n = 3
T1 construct: expressed in transfected cells; host or cells: HEK293
T1 sequence (P07174 30-425): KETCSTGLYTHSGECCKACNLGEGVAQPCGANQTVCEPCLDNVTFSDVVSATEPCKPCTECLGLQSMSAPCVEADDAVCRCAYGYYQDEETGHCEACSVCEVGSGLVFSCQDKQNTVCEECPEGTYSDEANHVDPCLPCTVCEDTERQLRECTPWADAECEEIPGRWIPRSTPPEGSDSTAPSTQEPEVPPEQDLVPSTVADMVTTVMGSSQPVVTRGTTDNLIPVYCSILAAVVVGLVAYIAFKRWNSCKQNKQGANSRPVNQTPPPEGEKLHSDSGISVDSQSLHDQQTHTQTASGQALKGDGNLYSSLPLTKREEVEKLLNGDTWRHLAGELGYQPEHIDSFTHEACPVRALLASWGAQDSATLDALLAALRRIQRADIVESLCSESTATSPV

[2] = test system: PC12 cell membranes; assay: [3H]-DHEA saturation binding to PC12 cell membranes; settings: membranes from PC12 cells transfected with siRNA against GAPDH; listed as [^3H]-DHEA; read-out: KD of [3H]-DHEA binding (Scatchard analysis)
[3] = biological target: T1, p75^NTR; assay: [125I]-NGF displacement, HEK293^p75NTR cell membranes; type: binding; settings: unpublished data
[4] = test system: PC12 cells; assay: Apoptosis of serum deprived PC12 cells, FACS Annexin V-FITC and PI; type: cell-based; settings: serum free, 100 nM, 24 h, n = 8; serum free control 53.5%±17.6%
Description: (§1) PC12 cells were cultured in 12-well plates, and 24 h later they were transfected with the si/shRNAs for TrkA and/or p75^NTR. […] Apoptosis was quantified 24 h later with annexin V-FITC and PI (BD Pharmingen) according to our protocol.

[5] = test system: nnr5 cells; assay: Apoptosis of nnr5 cells (PC12 clone expressing only p75NTR); type: cell-based; settings: DHEA 100 nM, NGF 100 ng/ml
Description: PC12 cells were obtained from LGC Promochem (LGC Standards GmbH, Germany) and nnr5 cells from Dr. C.F. Ibáñez (Karolinska Institute). Both cell types were grown in RPMI 1640 containing 2 mM L-glutamine, 15 mM HEPES, 100 units/ml penicillin, 0.1 mg/ml streptomycin, and 10% horse serum, 5% fetal calf serum (both charcoal-stripped for removing endogenous steroids) at 5% CO2 and 37°C. HEK-293 cells were obtained from LGC Promochem. Cells were grown in DMEM medium containing 10% fetal bovine serum (charcoal-stripped for removing endogenous steroids), 100 units/ml penicillin, and 0.1 mg/ml streptomycin, at 5% CO2 and […]. HEK-293 and PC12 cells were transfected with Lipofectamine 2000 (InVitrogen) according to manufacturer's instructions. Transfected cells were typically used on the 2nd day after transfection.
as §1

[6] = test system: sympathetic SCG neurons; assay: NGF deprivation-induced apoptosis of superior cervical ganglia sympathetic neurons, Annexin V; type: cell-based, rat; settings: 100 nM DHEA, medium lacking NGF with anti-NGF antiserum
Description: Cells were plated on collagen coated 24-well plates and cultured for 5 d prior to use.

[7] = test system: Shc, ERK1/2, and Akt kinases; assay: Phosphorylation of Shc, ERK1/2 and Akt kinases in PC12 cells (Western blot); type: cell-based; settings: serum deprived naive PC12 cells, 10 min; 100 nM DHEA, 100 ng/ml NGF
Description: (§2) PC12 or HEK293 cells lysates were electrophoresed through a 12% SDS-polyacrylamide gel, and then proteins were transferred to nitrocellulose membranes, which were processed according to standard Western blotting procedures, as previously described. To detect protein levels, membranes were incubated with the appropriate antibodies: Bcl-2 (dilution 1∶500), phospho TrkA (dilution 1∶500), total TrkA (dilution1∶500), p75^NTR (dilution 1∶500), phospho Shc (dilution 1∶1000), total Shc (dilution 1∶1000), phospho Akt (dilution 1∶500), total Akt (dilution 1∶500), phospho ERK1/2 (dilution 1∶500), and total ERK1/2 (dilution 1∶500). Proteins were visualized using the ECL Western blotting kit (ECL Amersham Biosciences, UK), and blots were exposed to Kodak X-Omat AR films. A PC-based Image Analysis program was used to quantify the intensity of each band (Image Analysis, Inc., Ontario, Canada).
(§3) To normalize for protein content the blots were stripped and stained with GAPDH antibody (dilution 1∶1000); the concentration of each target protein was normalized versus GAPDH. Where phosphorylation of TrkA or kinases was measured, membranes were first probed for the phosphorylated form of the protein, then stripped, and probed for the total protein.

[8] = biological target: T2, p75^NTR with effectors TRAF6, RIP2, RhoGDI (Rattus norvegicus, UniProt P07174); assay: Co-immunoprecipitation of p75NTR with effectors TRAF6, RIP2, RhoGDI in co-transfected HEK293 cells; type: cell-based; settings: co-transfected HEK293, 30 min; 100 nM DHEA, 100 ng/ml NGF
T2 construct: expressed in transfected cells; host or cells: HEK293
T2 sequence (P07174 30-425): T1 sequence (P07174 30-425)
Description: (§4) HEK293 cells were transfected with the appropriate plasmids (TrkA, p75^NTR, RIP2, TRAF-6, and RhoGDI) by using Lipofectamine 2000 (Invitrogen). Cells were harvested 48 h after transfection and suspended in lysis buffer (50 mM Tris-HCl, 0.15 M NaCl, 1% Triton-X100, pH 7.4) supplemented with protease inhibitors. Lysates were precleared for 1 h with Protein A-Sepharose beads (Amersham) and immunoprecipitated with the appropriate antibody (pTyr, Flag, or c-myc) overnight at 4°C. Protein A Sepharose beads were incubated with the lysates for 4 h at 4°C with gentle shaking. […] Beads were collected by centrifugation, washed four times with lysis buffer, and resuspended in SDS loading buffer. Proteins were separated by SDS/PAGE, followed by immunoblotting with specific antibodies.

[9] = test system: TrkA; assay: TrkA protein levels in serum deprived PC12 cells (immunoblotting); type: cell-based; settings: serum deprived PC12, 12 to 48 h; 100 nM DHEA, 100 ng/ml NGF; n = 5, p<0.01
Description: as §2, §3

[10] = test system: p75^NTR; assay: p75NTR protein levels in serum deprived PC12 cells (immunoblotting); type: cell-based; settings: serum deprived PC12, between 24 and 48 h; 100 nM DHEA, 100 ng/ml NGF; n = 5, p<0.01
Description: as §2, §3

[11] = biological target: T3, TrkA (Rattus norvegicus, UniProt P35739); assay: [3H]-DHEA saturation binding to membranes of HEK293 cells transfected with TrkA cDNA; parameters: expressed in transfected cells; host or cells: HEK293; settings: KD of [3H]-DHEA binding (Scatchard analysis), n = 3
T3 sequence (P35739 33-799): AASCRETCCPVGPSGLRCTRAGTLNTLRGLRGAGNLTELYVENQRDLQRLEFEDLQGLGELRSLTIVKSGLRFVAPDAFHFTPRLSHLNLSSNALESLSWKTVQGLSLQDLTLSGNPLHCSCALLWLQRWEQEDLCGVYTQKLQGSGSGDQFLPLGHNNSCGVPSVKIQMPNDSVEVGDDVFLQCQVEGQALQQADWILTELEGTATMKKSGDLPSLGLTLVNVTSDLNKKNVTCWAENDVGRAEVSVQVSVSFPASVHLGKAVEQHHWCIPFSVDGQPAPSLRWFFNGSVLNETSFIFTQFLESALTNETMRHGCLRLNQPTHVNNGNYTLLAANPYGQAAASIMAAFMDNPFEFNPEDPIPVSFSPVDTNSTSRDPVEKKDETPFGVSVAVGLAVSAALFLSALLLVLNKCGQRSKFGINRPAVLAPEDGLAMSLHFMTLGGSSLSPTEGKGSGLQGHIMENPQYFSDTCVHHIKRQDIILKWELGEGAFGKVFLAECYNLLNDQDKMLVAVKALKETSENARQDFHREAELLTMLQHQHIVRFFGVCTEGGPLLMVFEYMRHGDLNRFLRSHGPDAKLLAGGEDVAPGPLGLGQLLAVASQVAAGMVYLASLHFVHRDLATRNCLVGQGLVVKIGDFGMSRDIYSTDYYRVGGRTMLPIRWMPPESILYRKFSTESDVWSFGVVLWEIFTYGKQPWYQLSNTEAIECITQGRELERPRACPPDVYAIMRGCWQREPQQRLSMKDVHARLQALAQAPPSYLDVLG

[12] = biological target: T3, TrkA; assay: [125I]-NGF displacement, HEK293^TrkA cell membranes; type: binding; parameters: expressed in transfected cells; host or cells: HEK293; settings: unpublished data
[13] = biological target: T3, TrkA; assay: TrkA phosphorylation in HEK293^TrkA transfectants (anti-tyrosine IP, Western blot); type: cell-based; parameters: expressed in transfected cells; host or cells: HEK293; settings: 10 min (and 20 min), steroids 100 nM, NGF 100 ng/ml
Description: as §4, §2, §3

[14] = test system: TrkA positive sensory neurons of dorsal root ganglia; assay: Apoptotic loss of sensory neurons in dorsal root ganglia of NGF null mouse embryos; settings: ngf−/− embryos at E14, mothers treated daily with DHEA 2 mg
Description: ngf+/− mice [13] were obtained from the Jackson Laboratory and maintained on C57BL/6 background. […] Animals were housed in cages maintained under a constant 12 h light–dark cycle at 21–23°C, with free access to food and tap water.
Mice heterozygous for the NGF null mutation were interbred to obtain mice homozygous for the NGF gene disruption and the first day of gestation determined by the discovery of a copulation plug. The mothers were treated daily with a subcutaneous injection of DHEA (2 mg/day) or vehicle (4.5% ethanol in 0.9% saline) starting from the third day after gestation. Animals were collected at E14. At the day of collection the mothers were deeply anesthetized with sodium pentobarbital (Dolethal 0.7 ml/kg i.p.) followed by transcardial perfusion with saline solution containing heparin for about 7 min, and with 4% PFA, 15% Picric Acid, 0.05% GA in phosphate buffer 0.1 M, for another 7 min. After the perfusion the embryos were collected and maintained in the same fixative overnight at 4°C. Embryos were then washed in 0.1 M phosphate buffer and cryoprotected by using 10% sucrose followed by 20% sucrose overnight at 4°C. Finally, embryos were frozen in OCT in iso-pentane over liquid nitrogen for 5 min and the frozen tissues were stored for later use at −80°C. The samples were sectioned (20 µm) and mounted onto Superfrost plus slides (Menzel-Glaser J1800AMNZ). Slides were left to air-dry overnight at room temperature (RT) and were then either used immediately or were fixed in cold acetone for 1 min and stored at −80°C for later use.
Stored or fresh slides were fixed for 15 min in cold acetone at 4°C and left to dry for 10 min at room temperature. They were then washed in PB 0.1 M, then in TBS, and incubated for 45 min with 10% horse serum in TBS-T 0.1%. […] Sections were incubated for 4 h at RT and overnight at 4°C; they were then washed in TBS-T 0.1% and the anti-rabbit secondary antibodies (Alexa Fluor 488 and Alexa Fluor 546, 1∶1000 in TBS-T 0.1%) were added for 6 h at RT. […]

[15] = biological target: T3, TrkA; assay: Tyr490 TrkA phosphorylation in naive PC12 cells (Western blot); type: cell-based; parameters: PC12 cells, endogenously expressing TrkA receptors; endogenous in cells; host or cells: PC12; settings: 10 min, DHEA 100 nM, NGF 100 ng/ml
Description: as §2, §3

[16] = biological target: T1, p75^NTR; assay: Heterologous [3H]-DHEA displacement, HEK293^p75NTR cell membranes; type: binding; settings: for displacement of [3H]-DHEA binding (in words): competitor up to 1000 nM
[17] = biological target: T3, TrkA; assay: Heterologous [3H]-DHEA displacement, HEK293^TrkA cell membranes; type: binding; parameters: expressed in transfected cells; host or cells: HEK293
[18] = biological target: TrkA receptor; settings: extracellular and cytoplasmic juxtamembrane domains of TrkA; read-out: Kd of binding to TrkA receptor; cited from earlier work
[19] = biological target: p75NTR (Homo sapiens) (UniProt P08138); settings: cited from earlier work
p75NTR (Homo sapiens), sequence (P08138 29-250): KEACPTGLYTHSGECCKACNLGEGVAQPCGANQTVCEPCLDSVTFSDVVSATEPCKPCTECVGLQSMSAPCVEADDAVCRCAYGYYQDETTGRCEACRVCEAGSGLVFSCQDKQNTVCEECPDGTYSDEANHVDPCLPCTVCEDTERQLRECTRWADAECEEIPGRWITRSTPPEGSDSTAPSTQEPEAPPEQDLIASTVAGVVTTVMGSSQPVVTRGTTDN

[20] = biological target: T4, rat TrkA receptor expressed in HEK293 cells (HEK293^TrkA) (rat, UniProt P35739 33-799); assay: radioligand binding; homologous [125I]-NGF displacement with unlabeled NGF on membranes isolated from HEK293^TrkA and HEK293^p75NTR transfectants; settings: one partner purified
T4 construct: TrkA (NGF receptor tyrosine kinase), rat, expressed from the pHA vector backbone; source: HEK293, transfected (Lipofectamine 2000); crude membranes and whole cells
T4 sequence (P35739 33-799): as the sequence (P35739 33-799) above

[21] = biological target: T5, rat p75^NTR receptor expressed in HEK293 cells (HEK293^p75NTR) (rat, UniProt P07174 30-425); assay: as above; settings: one partner purified
T5 construct: also called p75 neurotrophin receptor; source: HEK293, transfected (Lipofectamine 2000); crude membranes, whole cells and lysate
T5 sequence (looked up): T1 sequence (P07174 30-425)

[22] = biological target: T4, rat TrkA receptor expressed in HEK293 …; assay: radioligand binding; heterologous displacement of 1 nM [3H]-DHEA (a steroid) by unlabeled NGF (10^-12-10^-6 M) on membranes (2 mg/ml) of HEK293^TrkA and HEK293^p75NTR cells, PBS pH 7.4 with protease inhibitors, collected on GF/B filters; settings: one partner purified
[23] = biological target: T5, rat p75^NTR receptor expressed in …; assay: as above; settings: one partner purified

Molecule: C[C@]12CC[C@H](O)CC1=CC[C@@H]1[C@@H]2CC[C@]2(C)C(=O)CC[C@@H]12 [DHEA, dehydroepiandrosterone]
- Kd ([1]; 25°C for 30 min): 5.6 ± 0.55 nM
- Kd ([1]; overnight incubation at 4°C): 5.9 ± 1.7 nM
- Kd [2]: 1.07 ± 0.43 nM
- displacement of [125I]-NGF binding (in words) [3]: unable to effectively displace
- increase of apoptosis (% of difference from serum supplemented cells) [4]: 6%±1.4%
- effect on apoptosis of nnr5 cells [5]: induced apoptosis
- effect on apoptotic sympathetic neurons after NGF withdrawal [6]: effectively compensated for NGF by decreasing the levels of apoptotic neurons
- phosphorylation of Shc, ERK1/2, and Akt kinases [7]: strongly increased
- association of p75NTR with effectors TRAF6 and RIP2 [8]: efficiently induced the association
- dissociation of RhoGDI from p75NTR receptors [8]: facilitating the dissociation
- TrkA receptor levels [9]: significantly increased
- p75NTR receptor levels [10]: significantly decreased
- Kd ([11]; 25°C for 30 min): 7.4 ± 1.75 nM
- Kd ([11]; overnight incubation at 4°C): 7.8 ± 3.1 nM
- displacement of [125I]-NGF binding (in words) [12]: unable to effectively displace
- phosphorylation of TrkA [13]: strongly increased
- Fluoro Jade C and Caspase 3 positive neurons in the DRG [14]: significantly reduced
- TUNEL-positive apoptotic neurons in the DRG [14]: decreased to levels shown in ngf+/− embryos
- TrkA positive staining in the DRG [14]: significant increase
- phosphorylation of TrkA (Tyr490) [15]: strongly induced

Molecule: C[C@]12CC[C@H](OS(=O)(=O)O)CC1=CC[C@@H]1[C@@H]2CC[C@]2(C)C(=O)CC[C@@H]12 [DHEAS, dehydroepiandrosterone sulfate]
- IC50 ([16]; HEK293^p75NTR membranes, 1 nM [3H]-DHEA, read-out: IC50 of [3H]-DHEA displacement): 8.1 ± 1.2 nM
- IC50 ([17]; HEK293^TrkA membranes, 1 nM [3H]-DHEA, read-out: IC50 of [3H]-DHEA displacement): 6.1 ± 1.1 nM
- phosphorylation of TrkA [13]: rapidly induced

Molecule: C[C@]12CC[C@@H]3c4ccc(O)cc4CC[C@H]3[C@@H]1CC[C@@H]2O [Estradiol]
- displacement of [3H]-DHEA binding (in words) ([16]; HEK293^p75NTR membranes): failed to displace
- displacement of [3H]-DHEA binding (in words) ([17]; HEK293^TrkA membranes, competitor 0.1 to 1000 nM): failed to displace

Molecule: CN(C)CCC=C1c2ccccc2CCc2ccccc21 [amitriptyline]
- Kd [18]: 3000 nM

Molecule: C[C@@H]1C[C@H]2[C@@H]3CCC4=CC(=O)C=C[C@]4(C)[C@@]3(F)[C@@H](O)C[C@]2(C)[C@@]1(O)C(=O)CO [dexamethasone]
- displacement of [3H]-DHEA binding (in words) ([16]; HEK293^p75NTR membranes): ineffective

Molecule: CC(C)=CCC[C@]1(C)C=Cc2c(O)c3c(c(CC=C(C)C)c2O1)O[C@]12C(=C[C@@H]4CC1C(C)(C)O[C@@]2(C/C=C(/C)C(N)=O)C4=O)C3=O [gambogic amide]
- Kd [18]: 75 nM

Molecule: C[C@]12CC[C@H]3[C@@H](CCC4=CC(=O)CC[C@@]43C)[C@@H]1CC[C@@H]2O [testosterone]
- IC50 [16]: 7.4 ± 3.2 nM
- IC50 [17]: 5.3 ± 2.1 nM
- phosphorylation of TrkA [13]: unable to increase

Molecule: NGF (from UniProt P01138)
- Kd [19]: 1 nM

B1: nerve growth factor (NGF), unlabeled (ligand, UniProt P01139 122-241, looked up)
chain: SSTHPVFHMGEFSVCDSVSVWVGDKTTATDIKGKEVTVLAEVNINNSVFRQYFFETKCRASNPVESGCRGIDSKHWNSYCTTTHTFVKALTTDEKQAAWRFIRIDTACVCVLSRKATRRG
notes: nerve growth factor (NGF); The species of the NGF is told nowhere; also called unlabeled NGF
- IC50 [20]: 0.3 ± 0.09 nM
- IC50 [21]: 1.7 ± 0.38 nM
- IC50 [22]: 0.8 ± 0.2 nM
- IC50 [23]: 1.19 ± 0.45 nM
